Read-outs that look alike come from different tables or passages of the source.
Assays:
Format in all cases: biochemical
human Lck enzyme = molecular target: T1, human Lck enzyme (Homo sapiens, UniProt P06239); assay: Lck enzyme inhibitory activity (time-resolved fluorometry, biotinylated peptide phosphorylation); details: read-out: LCK_IC50
T1 construct: purchased Carna Biosciences, Inc. 08-170
Outline: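 Readout pairs a europium cryptate-labelled anti-phosphotyrosine antibody with XL665-streptavidin, measured by time-resolved fluorescence. IC50 derived from percent inhibition against untreated controls.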

human Yes1 enzyme = molecular target: T2, human Yes1 enzyme (Homo sapiens, UniProt P07947); assay: Yes1 enzyme inhibitory activity (time-resolved fluorometry, biotinylated peptide phosphorylation); details: read-out: YES_IC50
T2 construct: made in house
T2 sequence (P07947 whole entry): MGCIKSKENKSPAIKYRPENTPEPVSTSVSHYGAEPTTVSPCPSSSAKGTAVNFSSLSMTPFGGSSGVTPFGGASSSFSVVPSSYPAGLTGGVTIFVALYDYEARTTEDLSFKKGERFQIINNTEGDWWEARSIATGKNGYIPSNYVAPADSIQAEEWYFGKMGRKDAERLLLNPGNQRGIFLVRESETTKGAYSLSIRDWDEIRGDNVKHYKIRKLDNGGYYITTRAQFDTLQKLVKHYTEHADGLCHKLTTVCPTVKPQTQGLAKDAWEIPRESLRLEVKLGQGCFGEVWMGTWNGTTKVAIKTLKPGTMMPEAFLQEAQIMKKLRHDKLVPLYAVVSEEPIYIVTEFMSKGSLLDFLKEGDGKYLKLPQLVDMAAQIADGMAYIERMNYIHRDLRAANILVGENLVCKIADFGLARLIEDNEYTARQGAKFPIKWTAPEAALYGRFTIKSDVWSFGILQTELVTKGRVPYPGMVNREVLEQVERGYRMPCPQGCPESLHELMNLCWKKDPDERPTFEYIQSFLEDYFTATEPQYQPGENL
Outline: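 Inhibition was expressed against a compound-free control to give IC50, using TR-FRET read-out (Eu-cryptate anti-pTyr antibody, streptavidin-XL665).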

human Src enzyme = molecular target: T3, human Src enzyme (Homo sapiens, UniProt P12931); assay: Src enzyme inhibitory activity (time-resolved fluorometry, biotinylated peptide phosphorylation); details: read-out: SRC_IC50
T3 construct: purchased Carna Biosciences, Inc. 08-173
T3 sequence (P12931 whole entry): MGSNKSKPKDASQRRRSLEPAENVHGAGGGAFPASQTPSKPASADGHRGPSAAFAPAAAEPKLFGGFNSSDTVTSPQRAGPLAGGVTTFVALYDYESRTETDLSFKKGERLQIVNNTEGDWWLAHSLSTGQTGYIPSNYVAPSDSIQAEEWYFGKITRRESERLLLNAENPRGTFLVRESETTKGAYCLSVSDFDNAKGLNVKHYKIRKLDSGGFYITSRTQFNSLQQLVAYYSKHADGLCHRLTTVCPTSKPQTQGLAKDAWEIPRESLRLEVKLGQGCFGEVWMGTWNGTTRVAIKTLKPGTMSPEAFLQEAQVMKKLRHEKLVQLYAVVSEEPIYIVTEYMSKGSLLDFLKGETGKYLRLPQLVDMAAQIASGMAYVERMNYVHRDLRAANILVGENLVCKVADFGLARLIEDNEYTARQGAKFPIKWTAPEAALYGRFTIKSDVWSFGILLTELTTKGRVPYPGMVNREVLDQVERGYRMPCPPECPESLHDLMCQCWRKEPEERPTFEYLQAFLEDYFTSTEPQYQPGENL
Outline: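 Compounds were tested for blocking tyrosine phosphorylation of a biotinylated peptide substrate by recombinant human Src. Phosphorylated product was quantified by time-resolved fluorometry using europium cryptate and XL665 conjugates, and IC50 was calculated against the compound-free control.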

[1] = biotinylated peptide phosphorylation

T1 sequence (P06239 whole entry): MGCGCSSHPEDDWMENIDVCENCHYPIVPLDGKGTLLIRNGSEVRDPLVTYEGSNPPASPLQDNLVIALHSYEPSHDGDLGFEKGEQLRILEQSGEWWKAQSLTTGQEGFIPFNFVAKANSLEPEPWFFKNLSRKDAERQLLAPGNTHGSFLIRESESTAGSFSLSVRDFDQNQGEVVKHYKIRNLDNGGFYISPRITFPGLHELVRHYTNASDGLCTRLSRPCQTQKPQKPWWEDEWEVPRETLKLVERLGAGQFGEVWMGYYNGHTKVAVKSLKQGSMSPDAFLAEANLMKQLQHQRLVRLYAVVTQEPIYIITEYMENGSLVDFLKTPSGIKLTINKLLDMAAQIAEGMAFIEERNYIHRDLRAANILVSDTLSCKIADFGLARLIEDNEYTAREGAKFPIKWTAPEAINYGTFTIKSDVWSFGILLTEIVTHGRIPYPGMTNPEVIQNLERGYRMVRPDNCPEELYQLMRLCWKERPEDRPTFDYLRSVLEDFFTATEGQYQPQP

Q: How did the IC50 (human Lck enzyme; [1]) turn out when `Cc1cc(Oc2ccccc2F)ccc1-n1ncc(C(=O)c2cc3cc(OCC(F)F)c(C4CCN(C(=O)CN)CC4)cc3[nH]2)c1N` [Example 4-18-004, 2-amino-1-[4-[2-[5-amino-1-[4-(2-fluorophenoxy)-2-methylphenyl]pyrazole-4-carbonyl]-5-(2,2-difluoroethoxy)-1H-indol-6-yl]piperidin-1-yl]ethanone] was run?
A: 9.2 nM

Q: What about the IC50 (human Yes1 enzyme; [1]) of the same compound?
A: 1.6 nM

Q: What about the IC50 (human Src enzyme; [1]) of the same compound?
A: 16 nM

Q: How did the IC50 (human Lck enzyme) turn out when `Cc1cc(-n2ncc(C(=O)c3cc4cc(OC5CCN(C6CCCC6)CC5)c(-c5ccccc5F)cc4[nH]3)c2N)ccc1Oc1ccccc1F` [Example 5-1-308, [5-amino-1-[4-(2-fluorophenoxy)-3-methylphenyl]pyrazol-4-yl]-[5-(1-cyclopentylpiperidin-4-yl)oxy-6-(2-fluorophenyl)-1H-indol-2-yl]methanone] was run?
A: 200 nM

Q: What about the IC50 (human Yes1 enzyme) of the same compound?
A: 7.7 nM

Q: And the IC50 (human Src enzyme)?
A: 1300 nM

Q: How did the IC50 (human Lck enzyme; [1]) turn out when `Cc1cc2cc(C(=O)c3cnn(-c4cnc(Oc5ccccc5F)cc4C)c3N)[nH]c2cc1NS(=O)(=O)c1cccc(F)n1` [Example 5-1-502, N-[2-[5-amino-1-[6-(2-fluorophenoxy)-4-methylpyridin-3-yl]pyrazole-4-carbonyl]-5-methyl-1H-indol-6-yl]-6-fluoropyridine-2-sulfonamide] was run?
A: 110 nM

Q: And the IC50 (human Yes1 enzyme; [1])?
A: 2.3 nM

Q: What about the IC50 (human Src enzyme; [1]) of the same compound?
A: 350 nM

Q: How did the IC50 (human Lck enzyme; [1]) turn out when `Cc1cc2cc(C(=O)c3cnn(-c4ccc(Oc5ccccc5F)cc4C)c3N)[nH]c2cc1NS(=O)(=O)c1cncc(Cl)c1` [Example 5-1-540, N-[2-[5-amino-1-[4-(2-fluorophenoxy)-2-methylphenyl]pyrazole-4-carbonyl]-5-methyl-1H-indol-6-yl]-5-chloropyridine-3-sulfonamide] was run?
A: 96 nM

Q: And the IC50 (human Yes1 enzyme; [1])?
A: 3.5 nM

Q: And the IC50 (human Src enzyme; [1])?
A: 350 nM

Q: Which IC50 (human Lck enzyme) does the source give for `Cc1cc(-n2ncc(C(=O)c3cc4cc(N5CCOCC5)c(N5CCOCC5)cc4[nH]3)c2N)ccc1Oc1ccccc1F` [Example 5-1-159, [5-amino-1-[4-(2-fluorophenoxy)-3-methylphenyl]pyrazol-4-yl]-(5,6-dimorpholin-4-yl-1H-indol-2-yl)methanone] here?
A: 39 nM

Q: And the IC50 (human Yes1 enzyme)?
A: 1.4 nM

Q: And the IC50 (human Src enzyme)?
A: 96 nM

Q: For `Cc1cc(Oc2c(F)cccc2F)ncc1-n1ncc(C(=O)c2cc3cc(OC4CCN(C(C)C)CC4)c(N)cc3[nH]2)c1N` [Example 5-1-183, [5-amino-1-[6-(2,6-difluorophenoxy)-4-methylpyridin-3-yl]pyrazol-4-yl]-[6-amino-5-(1-propan-2-ylpiperidin-4-yl)oxy-1H-indol-2-yl] methanone], which IC50 (human Lck enzyme) is on record?
A: 2.8 nM

Q: What about the IC50 (human Yes1 enzyme) of the same compound?
A: 0.44 nM

Q: And the IC50 (human Src enzyme)?
A: 4.9 nM

Q: For `Cc1cc2cc(C(=O)c3cnn(-c4ccc(Oc5ccccc5F)c(F)c4)c3N)[nH]c2cc1NS(C)(=O)=O` [Example 5-1-198, N-[2-[5-amino-1-[3-fluoro-4-(2-fluorophenoxy)phenyl]pyrazole-4-carbonyl]-5-methyl-1H-indol-6-yl]methanesulfonamide], which IC50 (human Lck enzyme) is on record?
A: 36 nM

Q: And the IC50 (human Yes1 enzyme)?
A: 1.5 nM

Q: What about the IC50 (human Src enzyme) of the same compound?
A: 270 nM

Q: With `Cc1cc2cc(C(=O)c3cnn(-c4cnc(Oc5c(F)cccc5F)cc4C)c3N)[nH]c2cc1NS(=O)(=O)c1cccc(C#N)n1` [Example 5-1-536, N-[2-[5-amino-1-[6-(2,6-difluorophenoxy)-4-methylpyridin-3-yl]pyrazole-4-carbonyl]-5-methyl-1H-indol-6-yl]-6-cyanopyridine-2-sulfonamide] as the compound, how does the IC50 (human Lck enzyme; [1]) read?
A: 92 nM

Q: And the IC50 (human Yes1 enzyme; [1])?
A: 9.2 nM

Q: And the IC50 (human Src enzyme; [1])?
A: 560 nM

Q: `Cc1cc(-n2ncc(C(=O)c3cc4cc(OC5CCN(C6CCCC6)CC5)c(-c5ccccc5Cl)cc4[nH]3)c2N)ccc1Oc1ccccc1F` [Example 5-1-285, [5-amino-1-[4-(2-fluorophenoxy)-3-methylphenyl]pyrazol-4-yl]-[6-(2-chlorophenyl)-5-(1-cyclopentylpiperidin-4-yl)oxy-1H-indol-2-yl]methanone] was tested. Which IC50 (human Lck enzyme) did it give?
A: 500 nM

Q: What about the IC50 (human Yes1 enzyme) of the same compound?
A: 5.2 nM

Q: And the IC50 (human Src enzyme)?
A: 2300 nM

Q: `Cc1cc(-n2ncc(C(=O)c3cc4cc(OC(F)F)c(N5CCOCC5)cc4[nH]3)c2N)ccc1Oc1ccccc1F` [Example 5-1-173, [5-amino-1-[4-(2-fluorophenoxy)-3-methylphenyl]pyrazol-4-yl]-[5-(difluoromethoxy)-6-morpholin-4-yl-1H-indol-2-yl]methanone] was tested. Which IC50 (human Lck enzyme) did it give?
A: 100 nM

Q: And the IC50 (human Yes1 enzyme)?
A: 2.6 nM

Q: And the IC50 (human Src enzyme)?
A: 340 nM

Q: What does the source list for `Cc1cc(Oc2c(F)cccc2F)ncc1-n1ncc(C(=O)c2cc3cc(F)c(N4CCN(S(C)(=O)=O)CC4)cc3[nH]2)c1N` [Example 5-1-099]?
A: IC50 (human Lck enzyme): 2.2 nM; IC50 (human Yes1 enzyme): 2.1 nM; IC50 (human Src enzyme): 11 nM

Q: What does the source list for `Cc1cc(Oc2ccccn2)ccc1-n1ncc(C(=O)c2cc3cc(F)c(NS(=O)(=O)CCCF)cc3[nH]2)c1N` [Example 4-2-017, N-[2-[5-amino-1-(2-methyl-4-pyridin-2-yloxyphenyl)pyrazole-4-carbonyl]-5-fluoro-1H-indol-6-yl]-3-fluoropropane-1-sulfonamide]?
A: IC50 (human Lck enzyme; [1]): 17 nM; IC50 (human Yes1 enzyme; [1]): 0.55 nM; IC50 (human Src enzyme; [1]): 26 nM

Q: How did the IC50 (human Lck enzyme) turn out when `CC(C)N1CCC(c2cc3[nH]c(C(=O)c4cnn(-c5ccc(Oc6cccc(Cl)c6)cc5F)c4N)cc3cc2F)CC1` [Example 5-1-010, [5-amino-1-[4-(3-chlorophenoxy)-2-fluorophenyl]pyrazol-4-yl]-[5-fluoro-6-(1-propan-2-ylpiperidin-4-yl)-1H-indol-2-yl]methanone] was run?
A: 3.6 nM

Q: What about the IC50 (human Yes1 enzyme) of the same compound?
A: 2.5 nM

Q: What about the IC50 (human Src enzyme) of the same compound?
A: 38 nM

Q: Which IC50 (human Lck enzyme; [1]) does the source give for `Cc1cc(Oc2c(F)cccc2F)ncc1-n1ncc(C(=O)c2cc3cc(N4CCOCC4)c(N4CCCS4(=O)=O)cc3[nH]2)c1N` [Example 4-25-008, [5-amino-1-[6-(2,6-difluorophenoxy)-4-methylpyridin-3-yl]pyrazol-4-yl]-[6-(1,1-dioxo-1,2-thiazolidin-2-yl)-5-morpholin-4-yl-1H-indol-2-yl]methanone] here?
A: 8.2 nM

Q: And the IC50 (human Yes1 enzyme; [1])?
A: 1.5 nM

Q: What about the IC50 (human Src enzyme; [1]) of the same compound?
A: 22 nM

Q: With `Cc1cccc(S(=O)(=O)Nc2cc3[nH]c(C(=O)c4cnn(-c5cnc(Oc6c(F)cccc6F)cc5C)c4N)cc3cc2F)n1` [Example 5-1-533, N-[2-[5-amino-1-[6-(2,6-difluorophenoxy)-4-methylpyridin-3-yl]pyrazole-4-carbonyl]-5-fluoro-1H-indol-6-yl]-6-methylpyridine-2-sulfonamide] as the compound, how does the IC50 (human Lck enzyme; [1]) read?
A: 120 nM

Q: What about the IC50 (human Yes1 enzyme; [1]) of the same compound?
A: 4.7 nM

Q: And the IC50 (human Src enzyme; [1])?
A: 510 nM

Q: Which results are given for `Cc1cc2cc(C(=O)c3cnn(-c4ccc(Oc5ccccc5F)cc4C)c3N)[nH]c2cc1NS(=O)(=O)CCCF` [Example 4-2-068, N-[2-[5-amino-1-[4-(2-fluorophenoxy)-2-methylphenyl]pyrazole-4-carbonyl]-5-methyl-1H-indol-6-yl]-3-fluoropropane-1-sulfonamide]?
A: IC50 (human Lck enzyme; [1]): 21 nM; IC50 (human Yes1 enzyme; [1]): 1.8 nM; IC50 (human Src enzyme; [1]): 28 nM

Q: What does the source list for `Cc1cc(Oc2c(F)cccc2F)ncc1-n1ncc(C(=O)c2cc3cc(OCC(F)F)c(N4CC(C)(C)NS4(=O)=O)cc3[nH]2)c1N` [Example 5-1-321, [5-amino-1-[6-(2,6-difluorophenoxy)-4-methylpyridin-3-yl]pyrazol-4-yl]-[5-(2,2-difluoroethoxy)-6-(4,4-dimethyl-1,1-dioxo-1,2,5-thiadiazolidin-2-yl)-1H-indol-2-yl]methanone]?
A: IC50 (human Lck enzyme): 34 nM; IC50 (human Yes1 enzyme): 5.8 nM; IC50 (human Src enzyme): 130 nM

Q: `Cc1cc(Oc2c(F)cccc2F)ncc1-n1ncc(C(=O)c2cc3cc(F)c(NS(=O)(=O)CCCF)cc3[nH]2)c1N` [Example 4-2-021, N-[2-[5-amino-1-[6-(2,6-difluorophenoxy)-4-methylpyridin-3-yl]pyrazole-4-carbonyl]-5-fluoro-1H-indol-6-yl]-3-fluoropropane-1-sulfonamide] was tested. Which IC50 (human Lck enzyme; [1]) did it give?
A: 8.6 nM

Q: And the IC50 (human Yes1 enzyme; [1])?
A: 1.5 nM

Q: And the IC50 (human Src enzyme; [1])?
A: 43 nM

Q: Which results are given for `Cc1cc(Oc2ccccc2F)ccc1-n1ncc(C(=O)c2cc3cc(OCC(F)F)c(N4C(=O)N[C@@H](Cc5ccc(O)cc5)C4=O)cc3[nH]2)c1N` [Example 5-1-251, (5S)-3-[2-[5-amino-1-[4-(2-fluorophenoxy)-2-methylphenyl]pyrazole-4-carbonyl]-5-(2,2-difluoroethoxy)-1H-indol-6-yl]-5-[(4-hydroxyphenyl)methyl]imidazolidine-2,4-dione]?
A: IC50 (human Lck enzyme): 15 nM; IC50 (human Yes1 enzyme): 3.8 nM; IC50 (human Src enzyme): 25 nM

Q: With `Cc1cc(Oc2c(F)cccc2F)ncc1-n1ncc(C(=O)c2cc3cc(OCC(F)F)c(-n4c(C)cc(=O)[nH]c4=O)cc3[nH]2)c1N` [Example 4-23-029, 1-{2-{5-amino-1-[6-(2,6-difluorophenoxy)-4-methylpyridin-3-yl]pyrazole-4-carbonyl}-5-(2,2-difluoroethoxy)-1H-indol-6-yl}-6-methylpyrimidine-2,4-dione] as the compound, how does the IC50 (human Lck enzyme; [1]) read?
A: 6.1 nM

Q: And the IC50 (human Yes1 enzyme; [1])?
A: 4.7 nM

Q: What about the IC50 (human Src enzyme; [1]) of the same compound?
A: 34 nM

Q: What does the source list for `Cc1cc(Oc2ccccc2F)ccc1-n1ncc(C(=O)c2cc3cc(F)c(NC4CN(S(C)(=O)=O)C4)cc3[nH]2)c1N` [Example 5-1-118]?
A: IC50 (human Lck enzyme): 2.7 nM; IC50 (human Yes1 enzyme): 0.85 nM; IC50 (human Src enzyme): 11 nM

Q: For `Cc1cc(Oc2c(F)cccc2F)ncc1-n1ncc(C(=O)c2cc3cc(OCC(F)F)c(NS(C)(=O)=O)cc3[nH]2)c1N` [Example 4-24-031, N-[2-[5-amino-1-[6-(2,6-difluorophenoxy)-4-methylpyridin-3-yl]pyrazole-4-carbonyl]-5-(2,2-difluoroethoxy)-1H-indol-6-yl]methanesulfonamide], which IC50 (human Lck enzyme; [1]) is on record?
A: 6.7 nM

Q: And the IC50 (human Yes1 enzyme; [1])?
A: 1.2 nM

Q: And the IC50 (human Src enzyme; [1])?
A: 21 nM

Q: Which IC50 (human Lck enzyme; [1]) does the source give for `Cc1cc(Oc2ccccc2F)ccc1-n1ncc(C(=O)c2cc3cc(OCC(F)F)c(N4CCCS4(=O)=O)cc3[nH]2)c1N` [Example 4-25-009, [5-amino-1-[4-(2-fluorophenoxy)-2-methylphenyl]pyrazol-4-yl]-[5-(2,2-difluoroethoxy)-6-(1,1-dioxo-1,2-thiazolidin-2-yl)-1H-indol-2-yl]methanone] here?
A: 18 nM

Q: What about the IC50 (human Yes1 enzyme; [1]) of the same compound?
A: 3.5 nM

Q: What about the IC50 (human Src enzyme; [1]) of the same compound?
A: 32 nM
